# “Also recorded” adds a separate entry of the source. Counter-ions that a name gives are not always drawn.
# Tests used:
# [1] = test system: formalin-evoked pain behavior; test: Formalin-evoked pain behavior (paw licking, early and late phase) in mice; format: in vivo, male Swiss mice; conditions: for early phase of formalin-evoked pain behavior / late phase of formalin-evoked pain behavior: drug injected in the paw (i.pl.) together with formalin; for early phase of formalin-evoked pain behavior: 0-15 min; for late phase of formalin-evoked pain behavior: 15-30 min; for formalin-evoked nociceptive response / pain behavior (whole testing period): i.pl., 50 μg; for blockade of the antinociceptive effects of anandamide plus PEA (0.1 μg each): antagonist 0.1 mg per kg i.v., prior administration; for reversal of PEA-induced analgesia: prior administration of antagonist, PEA 50 μg i.pl.; for reversal of the antinociceptive effects of anandamide, WIN-55212-2 and HU-210: prior systemic administration of antagonist
# Procedure: For instance, injection of dilute formalin in the hind-paws of freely moving rodents evokes a pain behavior consisting of two temporally distinct phases of licking and flexing of the injected limb. An early phase involving activation of primary sensory fibers begins immediately after formalin administration, reaches a peak within 5 min, and rapidly declines. Following an interval of 10-15 min, a second phase of sustained pain behavior appears, in which sensory fiber activity is accompanied by local inflammation and central sensitization.
# Saline (10 μl) containing 5% formalin and 10% DMSO was injected subcutaneously in the hind-paws of male Swiss mice (20-25 g, Nossan, Italy). The duration of paw licking was monitored by an observer blind to the experimental treatment for periods of 0-15 min (early phase) and 15-30 min (late phase) after formalin administration. For the experiment in FIG. 4, pain behavior was monitored for 5 min periods during a 30 min period following formalin injection.
# [2] = test system: nerve conduction, blinking reflex of the cornea; test: Rabbit corneal reflex test (local anaesthetic activity); format: in vivo, male New Zealand rabbits; conditions: aqueous 2% solution with 30% DMSO into the conjunctival sac
# Procedure: Local anaesthetic activity was evaluated in male New Zealand rabbits (2. 4-2.8 kg, Morini, Italy) by measuring the number of stimuli to the cornea, delivered with a Frey's horse-hair, necessary to produce the blinking reflex. Aqueous 2% solutions of PEA or lidocaine (a standard local anaesthetic) containing 30% DMSO were applied into the conjuctival sac.
# [3] = test system: inflammatory edemas in the hind paws; test: Formalin-induced inflammatory paw edema (plethysmometer); format: in vivo, Swiss mice; conditions: after injection of formalin plus PEA (50 μg per paw); six mice; formalin alone 0.37±0.006, control 0.18±0.003
# [4] = test system: behavioral response to acute thermal stimuli; test: Hot-plate test (time delays to escape jumping, 55.5 C) after intracerebroventricular administration; format: in vivo, mice; conditions: for hot-plate latencies: 10 μg (10 μg each for AEA/PEA), n = 6
# [5] = rats, 10 min after i.pl. injection
# [6] = 5 min after i.c.v. administration
# [7] = 10 min after i.c.v. administration
# [8] = 15 min after i.c.v. administration
# [9] = 20 min after i.c.v. administration
# [10] = 30 min after i.c.v. administration
# [11] = 40 min after i.c.v. administration
# [12] = 60 min after i.c.v. administration
# [13] = antagonist alone, systemic administration, 0.1 mg per kg i.v.
compound,measurement,setting,value
CCCCCCC(C)(C)c1cc(O)c2c(c1)OC(C)(C)[C@@H]1CC=C(CO)C[C@@H]21 [HU-210],early phase of formalin-evoked pain behavior,[1],blocked
same,late phase of formalin-evoked pain behavior,[1],blocked
Cc1c(C(=O)c2cccc3ccccc23)c2cccc3c2n1[C@H](CN1CCOCC1)CO3 [WIN-55212-2],early phase of formalin-evoked pain behavior,[1],blocked
same,late phase of formalin-evoked pain behavior,[1],blocked
"CCCCCCCCCCCCCCCC(=O)NCCO [PEA, palmitylethanolamide]",nerve conduction in the rabbit corneal reflex test (local anesthetic activity),[2],did not affect
same,early phase of formalin-evoked pain behavior,[1],inhibited
same,late phase of formalin-evoked pain behavior,[1],inhibited
same,"antinociceptive potency, local (i.pl.) compared with systemic (i.v. or i.p.) administration",[1]; i.pl. vs i.v. or i.p.,more potent when administered locally
same,formalin-evoked nociceptive response / pain behavior (whole testing period),[1],inhibits
same,paw volume,[3],0.35 ± 0.006 mL
same,hot-plate latencies,[4]; [6],22 ± 3 s
same,hot-plate latencies,[4]; [7],23 ± 3 s
same,hot-plate latencies,[4]; [8],21 ± 2 s
same,hot-plate latencies,[4]; [9],25 ± 4 s
same,hot-plate latencies,[4]; [10],26 ± 5 s
same,hot-plate latencies,[4]; [11],22 ± 4 s
same,hot-plate latencies,[4]; [12],24 ± 2 s
same,enhancement of the inhibitory activity of anandamide in the hot-plate test,[4]; both injected in the cerebral ventricles,did not enhance
same,"behavioral responses to acute thermal stimuli, hot-plate test",[4]; injection in the cerebral ventricles,did not affect
"Cc1c(C(=O)NN2CCCCC2)nn(-c2ccc(Cl)cc2Cl)c1-c1ccc(Cl)cc1 [SR141716A, [N-(piperidin-1-yl)-5-(4-chlorophenyl)-1-(2,4-dichlorophenyl)-4-methyl-1H-pyrazole-3-carboxamide. HCl]]",blockade of the antinociceptive effects of anandamide plus PEA (0.1 μg each),[1],prevent
same,reversal of PEA-induced analgesia,[1],ineffective
same,"reversal of the antinociceptive effects of anandamide, WIN-55212-2 and HU-210",[1]; 0.1 mg per kg i.v.,reversed
"CCCCC/C=C\C/C=C\C/C=C\C/C=C\CCCC(=O)NCCO [anandamide, arachidonylethanolamide]",early phase of formalin-evoked pain behavior,[1],completely blocked
same,late phase of formalin-evoked pain behavior,[1],lack of effect; also recorded: no effect
same,"potency in preventing formalin-evoked pain behavior, i.pl. relative to i.v.",[1]; i.pl. vs i.v.,100 times
same,formalin-evoked nociceptive response / pain behavior (whole testing period),[1],inhibits
same,effect on formalin-evoked pain behavior,[1]; intraperitoneal (i.p.),no effect
same,"half-maximal inhibitory dose (ID50), formalin-evoked pain behavior",[1]; intraplantar (i.pl.),0.1 mg per kg
same,"half-maximal inhibitory dose (ID50), formalin-evoked pain behavior",[1]; intravenous (i.v.),10 mg per kg
same,hot-plate latencies,[4]; [6],24 ± 4 s
same,hot-plate latencies,[4]; [7],23 ± 3 s
same,hot-plate latencies,[4]; [8],29 ± 3 s
same,hot-plate latencies,[4]; [9],35 ± 2 s
same,hot-plate latencies,[4]; [10],40 ± 3 s
same,hot-plate latencies,[4]; [11],30 ± 3 s
same,hot-plate latencies,[4]; [12],28 ± 3 s
CCCCC/C=C\C/C=C\C/C=C\C/C=C\CCCC(=O)N[C@H](C)CO [methanandamide],formalin-evoked nociceptive response / pain behavior (whole testing period),[1],inhibited pain behavior throughout the testing period
"N-[(1S)-endo-1,3,3-trimethyl bicyclo [2.2.1]heptan-2-yl]-5-(4-chloro-3-methylphenyl)-1-(4-methylbenzyl)-pyrazole-3-carboxamide [SR144528]",blockade of the antinociceptive effects of anandamide plus PEA (0.1 μg each),[1],prevent
same,intrinsic effect of antagonist on early phase of formalin-evoked pain behavior,[1]; [13],selective enhancement; also recorded: selectively enhanced
same,intrinsic effect of antagonist on late phase of formalin-evoked pain behavior,[1]; [13],not
same,reversal of PEA-induced analgesia,[1],completely reversed
same,"reversal of the antinociceptive effects of anandamide, WIN-55212-2 and HU-210",[1]; 0.1 mg per kg i.v.,not
C=CCN1CC[C@]23c4c5ccc(O)c4O[C@H]2C(=O)CC[C@@]3(O)[C@H]1C5 [naloxone],reversal of PEA-induced analgesia,[1],ineffective
CCCCC/C=C\C/C=C\C/C=C\C/C=C\CCCC(=O)NCCO [[^3H]anandamide],radioactivity in cerebellum,[5],165±67 dpm per g
same,radioactivity in forebrain,[5],79±19 dpm per g
same,radioactivity in spinal cord,[5],90±48 dpm per g
same,radioactivity in injected paw,[5]; mean±s.e.m.,6648±820 dpm per g
same,recovered [3H]anandamide remaining associated with the injected paw,[5]; three experiments,94%

# Source: patent publication US6656972B2, “Control of pain with endogenous cannabinoids” (Neurosciences Research Foundation, Inc., priority 1998, dated 2003)
